This is an account of results in patent publication EP3443980A1, “COMPOUND FOR THE TREATMENT OF PATIENTS WITH LEPTIN-RESISTANT OBESITY, BARDET-BIEDL SYNDROME AND OTHER CILIOPATHIES” (Ciliocure Limited, priority 2017, dated 2019).

Holding throughout (type): in vivo
In one assay the test system is BBS12^-/- mice. The experiment in a line: Apoptosis of photoreceptors in BBS12 model: retinal explants and BBS12-/- mice (Experiments 1a, 1b). The note with it: another mouse model for Bardet-Biedl syndrome. As to the method: Experiment 1a: Effects of GLP-1 in ex-vivo model (retinal explants): In BBS12-deprived retinal explants and the Bbs12^/ murine model, impaired intraciliary transport results in protein retention in the endoplasmic reticulum. The protein overload activates a pro-apoptotic unfolded protein response leading to a specific Caspase12-mediated apoptosis of the photo-receptors. BBS12-deprived retinal explants are incubated with Ac-GLP-1 (7-34)amide and Caspase12-mediated apoptosis of the photo-receptors is compared to the apoptosis rate of BBS12-deprived retinal explants, which have been treated with the vehicle only.
• 15-day-old mice are sacrificed by decapitation, and the eyes are removed • First, the sclera is carefully removed, leaving the retinal pigmented epithelium attached to the eye ball. • Incisions are made at the edge of the cornea to remove cornea, lens, and hyaloid body. • Retinas are transferred, with retinal pigmented epithelium side down, to a culture membrane • Retina explants are maintained at 37 °C in a humidified 5% CO2 atmosphere. • Specific gene silencing with lentiviruses that carry a shRNA sequence for Bbs12 is performed. • Drugs are added to the culture medium […]

Assay [1] has as its system leptin-resistant obese mice carrying the M390R mutation in the Bbs1 gene (Bbs1^M390R). The assay is described as follows: Body weight and food intake of leptin-resistant obese Bbs1 M390R mice (Experiment 2). The note with it: mouse model for Bardet-Biedl syndrome with leptin resistance. An excerpt: Experiment 2: The purpose of the experiment is to study the effects of GLP-1 receptor agonists on • body weight and food intake of leptin-resistant obese mice carrying the M390R mutation in the Bbs1 gene (Bbs1^M390R) and on • body weight and food intake of lean wild type littermate controls, both groups fed ad libitum. In this particular experiment the GLP-1 receptor agonist used is acetyl-GLP-1(7-34)amide. The M390R mutation in the Bbs1 gene can also be found in human Bardet-Biedl syndrome.
Male 12-16 weeks old mice are housed in individual cages for 3-5 days to acclimate to single housing conditions before baseline body weight and 24-hour food intake is determined during 4 days. Then food intake and body weight is tested in response to treatment with acetyl-GLP-1(7-34)amide. […]
During the treatment period, mice continue to have free access to food. […] At the end of the 7-day treatment period, body composition is determined in live mice using nuclear magnetic resonance (NMR) tomography. Mice are then sacrificed and the weight of various organs and tissues including various fat depots, liver, kidneys, heart, lung and brain are measured. […]

Assay [2] concerns mice carrying the M390R mutation in the Bbs1 gene (Bbs1^M390R). The assay is described as follows: Retinal degeneration (rod-cone dystrophy, retinal cell apoptosis) in Bbs1 M390R mice (Experiment 3). The conditions noted are these: the same mouse model for Bardet-Biedl syndrome. The procedure:
Experiment 3: The purpose of the experiment is to study the effects of GLP-1 receptor agonists on • Development of rod-cone dystrophy in mice carrying the M390R mutation in the Bbs1 gene (Bbs1^M390R). In this particular experiment the GLP-1 receptor agonist used is acetyl-GLP-1(7-34)amide. The M390R mutation in the Bbs1 gene can also be found in human Bardet-Biedl syndrome.
Male Bbs1^M390R mice are used in the experiment. From postnatal day 6 to postnatal day 30 the experimental group is treated intraperitoneally with acetyl-GLP-1 (7-34)amide. Mice of the control group are treated during the same age period with vehicle.
Analysis of endpoints: comparison of control vs GLP-1 At the end of the treatment period, mice are investigated by use of electroretinography (ERG), optical coherence tomography (OCT) and histology.

On to `CC[C@H](C)[C@H](NC(=O)[C@H](Cc1ccccc1)NC(=O)[C@H](CCC(=O)O)NC(=O)[C@H](CCCCN)NC(=O)[C@H](C)NC(=O)[C@H](C)NC(=O)[C@H](CCC(N)=O)NC(=O)CNC(=O)[C@H](CCC(=O)O)NC(=O)[C@H](CC(C)C)NC(=O)[C@H](Cc1ccc(O)cc1)NC(=O)[C@H](CO)NC(=O)[C@H](CO)NC(=O)[C@@H](NC(=O)[C@H](CC(=O)O)NC(=O)[C@H](CO)NC(=O)[C@@H](NC(=O)[C@H](Cc1ccccc1)NC(=O)[C@@H](NC(=O)CNC(=O)[C@H](CCC(=O)O)NC(=O)[C@H](C)NC(=O)[C@H](Cc1c[nH]cn1)NC(C)=O)[C@@H](C)O)[C@@H](C)O)C(C)C)C(=O)N[C@@H](C)C(=O)N[C@@H](Cc1c[nH]c2ccccc12)C(=O)N[C@@H](CC(C)C)C(=O)N[C@H](C(=O)N[C@@H](CCCCN)C(N)=O)C(C)C` [Ac-GLP-1 (7-34)amide, N-acetyl-GLP-1(7-34)amide], for which the “apoptosis of retinal cells” value with BBS12^-/- mice is “inhibits apoptosis of retinal cells”. Further, in assay [1], the food intake result is recorded as “inhibit food intake” and the weight loss result is “stimulate weight loss”. The “apoptosis of retinal cells” value in assay [2] is “inhibits apoptosis of retinal cells”.
